Test system: Liver Response-Associated Features (LRFs) in liver tissue
Test: Proteome analysis (2D electrophoresis, Reference Protocol) of liver tissue of drug-treated vs control animals: relative abundance of LRFs
Text: Samples from animals treated with various drugs at various timepoints and various dose levels can be collected, prepared, and analysed as described herein. […] Using the following procedure, proteins in liver tissue and serum/plasma from 5 control animals and 5 animals having liver response induced through drug treatment were separated by isoelectric focusing followed by SDS-PAGE and analyzed. Samples were taken and analyzed at three different time points designated “early”, “full manifestation” and “late”. Parts 6.1.1 to 6.1.9 (inclusive) of the procedure set forth below are hereby designated as the “Reference Protocol”.
At the time of necropsy, approximately 2 g section of the liver's median lobe was removed to a conical tube and quick-frozen in liquid nitrogen. The frozen liver section was then pulverized for 1 minute using a freezer mill as follows:
Approximately 10-20 mg pulverized liver was solubilized with 10 ul protease inhibitor and 1.5 ml lysis solution and vortexed well. The sample was allowed to remain at room temperature for 10 minutes, was vortexed again, and then pelleted using an Eppendorf 5417R Centrifuge for 10 minutes at 13000g at 15 EC. The resulting supernatant was frozen at −80° C.
The sample was heated at 95° C. for 5 mins, and then allowed to cool to 20° C. 125 μl of the following buffer was then added to the sample:
This mixture was vortexed, and centrifuged at 13000 rpm for 5 mins at 15° C., and the supernatant was analysed by isoelectric focusing. An assay for protein content was carried out on the final sample (Pierce BCA Cat #23225).
Isoelectric focusing (IEF), was performed using the Immobiline® DryStrip Kit (Pharmacia BioTech), following the procedure described in the manufacturer's instructions, see Instructions for Immobilineg DryStrip Kit, Pharmacia, #18-1038-63, Edition AB (incorporated herein by reference in its entirety). Immobilized pH Gradient (IPG) strips (18 cm, pH 3-10 non-linear strips; Pharmacia Cat. #17-1235-01) were rehydrated overnight at 20° C. in a solution of 8M urea, 2% (w/v) CHAPS, 10 mM DTT, 2% (v/v) Resolytes 3.5-10, as described in the Immobiline DryStrip Users Manual. For IEF, 50 μl of supernatant (prepared as above) was loaded onto a strip, with the cup-loading units being placed at the basic end of the strip. The loaded gels were then covered with mineral oil (Pharmacia 17-3335-01) and a voltage was immediately applied to the strips according to the following profile, using a Pharmacia EPS3500XL power supply (Cat 19-3500-01):
After the final 19 hr step, the strips were immediately removed and immersed for 10 mins at 20° C. in a first solution of the following composition: 6M urea; 2% (w/v) DTT; 2% (w/v) SDS; 30% (v/v) glycerol (Fluka 49767); 0.05M Tris/HCl, pH 6.8 (Sigma Cat T-1503). The strips were removed from the first solution and immersed for 10 mins at 20° C. in a second solution of the following composition: 6M urea; 2% (w/v) iodoacetamide (Sigma 1-6125); 2% (w/v) SDS; 30% (v/v) glycerol; 0.05M Tris/HCl, pH 6.8.
A 9-16% linear polyacrylamide gradient was cast, extending up to a point 2 cm below the level of the notch in the front plate, using the Angelique gradient casting system (Large Scale Biology). Stock solutions were as follows. Acrylamide (40% in water) was from Serva (Cat. #10677). […] The gel buffer was 0.375M Tris/HCl, pH 8.8. The polymerization catalyst was 0.05% (v/v) TEMED (BioRad 161-0801), and the initiator was 0.1% (w/v) APS (BioRad 161-0700). No SDS was included in the gel and no stacking gel was used. The cast gels were allowed to polymerize at 20° C. overnight, and then stored at 4° C. in sealed polyethylene bags with 6 ml of gel buffer, and were used within 4 weeks.
A solution of 0.5% (w/v) agarose (Fluka Cat 05075) was prepared in running buffer (0.025 M Tris, 0.198 M glycine (Fluka 50050), 1% (w/v) SDS, supplemented by a trace of bromophenol blue). The agarose suspension was heated to 70° C. with stirring, until the agarose had dissolved.

CCC1(c2ccccc2)C(=O)NC(=O)NC1=O [phenobarbital]
Fold Change LRF-24 (Early, P 0.0075): 3.34 fold
Fold Change LRF-17 (Early, P 0.0212): 1.61 fold
Fold Change LRF-26 (Early, P 0.0216): 1.33 fold
Fold Change LRF-37 (Early, P 0.0254): 3.98 fold
Fold Change LRF-112 (Late, P 0.0075): 5.38 fold
Fold Change LRF-115 (Late, P 0.0075): 3.16 fold
Fold Change LRF-85 (Middle, P 0.0122): 1.72 fold
Fold Change LRF-60 (Middle, P 0.0216): 1.67 fold
Fold Change LRF-80 (Middle, P 0.0216): 1.40 fold
Fold Change LRF-90 (Middle, P 0.0216): 1.47 fold
Fold Change LRF-66 (Middle, P 0.0345): 1.93 fold
Fold Change LRF-74 (Middle, P 0.0361): 1.42 fold
Fold Change LRF-83 (Middle, P 0.0367): 1.40 fold

— patent US20030228583A1, “Biomarkers of liver response” (priority 2001, published 2003)
